ChEMBL document CHEMBL6078688, “Discovery of Novel MyD88 Inhibitor A5S to Alleviate Acute Lung Injury with Favorable Drug-like Properties” (J Med Chem, 2024)
Calls of active or inactive are those of the source. The rule behind the calls is not given here.

Legend:
[1] = Tmax in Sprague-Dawley rat at 20 mg/kg,po administration measured upto 24 hrs by LC-MS/MS analysis; format: ADME, organism-based; details: in vivo
[2] = AUC (0 to t) in Sprague-Dawley rat at 1 mg/kg,iv administration measured upto 24 hrs by LC-MS/MS analysis; format: ADME, organism-based; details: in vivo
[3] = Half life in Sprague-Dawley rat at 1 mg/kg,iv administration measured upto 24 hrs by LC-MS/MS analysis; format: ADME, organism-based; details: in vivo
[4] = Stability of compound in rat serum measured upto 12 hrs; format: ADME, cell-free
Mus musculus [5] = assay: Antiinflammatory activity against LPS induced acute lung injury C57BL/6 mouse model assessed as reduction in histopathological change in lung at 20 mg/kg,po administrated with compound for 30 mins followed by LPS treatment and measured after 6 hrs by H and E staining based analysis; format: functional, organism-based; details: time 6.5 hrs
[6] = Acute toxicity in C57BL/6 mouse assessed as pathological change in liver at 500 mg/kg,po administration measured upto 11 days by hematoxylin and eosin staining based assay; format: organism-based; details: in vivo, 264 h, time < 11 day
Mus musculus [7] = assay: Antiinflammatory activity against LPS induced acute lung injury C57BL/6 mouse model assessed as reduction in IL-6 level in BALF at 20 mg/kg,po administrated with compound for 30 mins followed by LPS treatment and measured after 6 hrs by ELISA; format: functional, organism-based; details: time 6.5 hrs
Mus musculus [8] = assay: Antiinflammatory activity against LPS induced acute lung injury C57BL/6 mouse model assessed as reduction in total cell count in BALF at 20 mg/kg,po administrated with compound for 30 mins followed by LPS treatment and measured after 6 hrs; format: functional, organism-based; details: time 6.5 hrs
[9] = Stability of compound in simulated gastric fluid measured upto 12 hrs; format: physicochemical; details: simulated gi fluid
[10] = target: T1, Myeloid differentiation primary response protein MyD88 (Homo sapiens, UniProt Q99836); assay: Inhibition of FLAG tagged and HA tagged MYD88 (unknown origin) expressed in LPS induced HEK293T cells at 20 uM incubated for 1 hr by coimmunoprecipitation analysis; format: cell-based
Mus musculus [11] = assay: Antiinflammatory activity against LPS induced acute lung injury C57BL/6 mouse model assessed as reduction in pulmonary edema by measuring reduction of lung wet to dry ratio at 20 mg/kg,po administrated measured after 48 hrs; format: functional, organism-based
Mus musculus [12] = assay: Antiinflammatory activity in cecal ligation and puncture induced sepsis C57BL/6 mouse model assessed as reduction in IL-6 level in BALF at 20 mg/kg,po administrated with compound for 6 hrs followed by CLP induction and measured after 12 hrs by ELISA; format: functional, organism-based; details: time 18.0 hrs
[13] = Acute toxicity in C57BL/6 mouse assessed as pathological change in kidney at 500 mg/kg,po administration measured upto 11 days by hematoxylin and eosin staining based assay; format: organism-based; details: in vivo, 264 h, time < 11 day
[14] = Stability of compound in simulated intestinal fluid measured upto 12 hrs; format: physicochemical; details: simulated gi fluid
J774.A1 [15] = assay: Inhibition of NF-kappaB signalling pathway in LPS-induced mouse J774.A1 cells assessed as upregulation of IkappaB-alpha expression by Western blotting analysis; format: cell-based
Mus musculus [16] = assay: Antiinflammatory activity in cecal ligation and puncture induced sepsis C57BL/6 mouse model assessed as reduction in IL-6 level in serum at 20 mg/kg,po administrated with compound for 6 hrs followed by CLP induction and measured after 12 hrs by ELISA; format: functional, organism-based; details: time 18.0 hrs
Mus musculus [17] = assay: Antiinflammatory activity against LPS induced acute lung injury C57BL/6 mouse model assessed as reduction in TNF-alpha level in BALF at 20 mg/kg,po administrated with compound for 30 mins followed by LPS treatment and measured after 6 hrs by ELISA; format: functional, organism-based; details: time 6.5 hrs
J774.A1 [18] = assay: Inhibition of MAPK signalling pathway in LPS stimulated mouse J774.A1 cells assessed as downregulation of IRAK4 phosphorylation by Western blotting analysis; format: cell-based
Mus musculus [19] = assay: Antiinflammatory activity against LPS induced acute lung injury C57BL/6 mouse model assessed as reduction in IL-6 level in serum at 20 mg/kg,po administrated with compound for 30 mins followed by LPS treatment and measured after 6 hrs by ELISA; format: functional, organism-based; details: time 6.5 hrs
Mus musculus [20] = assay: Antiinflammatory activity against LPS induced acute lung injury C57BL/6 mouse model assessed as reduction in total protein concentration in BALF at 20 mg/kg,po administrated with compound for 30 mins followed by LPS treatment and measured after 6 hrs; format: functional, organism-based; details: time 6.5 hrs
[21] = AUC (0 to infinity) in Sprague-Dawley rat at 20 mg/kg,po administration measured upto 24 hrs by LC-MS/MS analysis; format: ADME, organism-based; details: in vivo
[22] = target: T1, Myeloid differentiation primary response protein MyD88; assay: Binding affinity to CM5 sensor chip immobilized human MyD88 TIR domain assessed as thermal stabilization at 10 uM incubated for 4 hrs by cellular thermal shift assay
Peritoneal macrophage = assay: Antiinflammatory activity in LPS-induced mouse Peritoneal macrophage cells assessed as inhibition of IFN-beta mRNA level at 1.25 to 5 uM by RT-PCR analysis; format: functional, cell-based; details: dose 1.25-5 µM
Mus musculus [23] = assay: Antiinflammatory activity in cecal ligation and puncture induced sepsis C57BL/6 mouse model assessed as reduction in cell effusion in BALF at 20 mg/kg,po administrated with compound for 6 hrs followed by CLP induction and measured after 12 hrs; format: functional, organism-based; details: time 18.0 hrs
[24] = Drug concentration in Sprague-Dawley rat serum at 1 mg/kg,iv administration measured upto 24 hrs by LC-MS/MS analysis; format: ADME, organism-based; details: read-out: Ct
[25] = Cmax in Sprague-Dawley rat at 20 mg/kg,po administration measured upto 24 hrs by LC-MS/MS analysis; format: ADME, organism-based; details: in vivo
[26] = Acute toxicity in C57BL/6 mouse assessed as weight loss at 500 mg/kg,po administration measured after 3 days; format: organism-based; details: in vivo, 72 h, time 3 day
[27] = target: TLR4-MyD88 (Mus musculus) (UniProt Q9QUK6+P22366); assay: Inhibition of MYD88/TLR4 protein-protein interaction in LPS-induced mouse J774.A1 cells at 20 uM incubated for 2 hrs by coimmunoprecipitation analysis; format: cell-based
[28] = Drug concentration in Sprague-Dawley rat lung at 20 mg/kg,po administration measured upto 8 hrs by LC-MS/MS analysis; format: ADME, organism-based; details: in vivo
[29] = target: T1, Myeloid differentiation primary response protein MyD88; assay: Binding affinity to CM5 sensor chip immobilized human MyD88 TIR domain assessed as dissociation constant by SPR analysis
Mus musculus [30] = assay: Antiinflammatory activity against LPS induced acute lung injury C57BL/6 mouse model assessed as reduction in of leukocytes in alveolar region at 20 mg/kg,po administrated with compound for 30 mins followed by LPS treatment and measured after 6 hrs by immunohistochemical staining based analysis; format: functional, organism-based
[31] = target: Toll-like receptor 4/Ly96 (Mus musculus) (UniProt Q9QUK6+Q9JHF9); assay: Inhibition of MD2/TLR4 protein-protein interaction in LPS-induced mouse J774.A1 cells at 20 uM incubated for 2 hrs by coimmunoprecipitation analysis; format: cell-based
J774.A1 [32] = assay: Cytotoxicity against mouse J774.A1 cells at 3 to 12 uM by MTT assay; format: toxicity, cell-based; details: j774.a1, 12 µM, dose 3-12 µM
Mus musculus [33] = assay: Antiinflammatory activity against LPS induced acute lung injury C57BL/6 mouse model assessed as reduction in TNF-alpha level in serum at 20 mg/kg,po administrated with compound for 30 mins followed by LPS treatment and measured after 6 hrs by ELISA; format: functional, organism-based; details: time 6.5 hrs

T1 sequence (Q99836 whole entry): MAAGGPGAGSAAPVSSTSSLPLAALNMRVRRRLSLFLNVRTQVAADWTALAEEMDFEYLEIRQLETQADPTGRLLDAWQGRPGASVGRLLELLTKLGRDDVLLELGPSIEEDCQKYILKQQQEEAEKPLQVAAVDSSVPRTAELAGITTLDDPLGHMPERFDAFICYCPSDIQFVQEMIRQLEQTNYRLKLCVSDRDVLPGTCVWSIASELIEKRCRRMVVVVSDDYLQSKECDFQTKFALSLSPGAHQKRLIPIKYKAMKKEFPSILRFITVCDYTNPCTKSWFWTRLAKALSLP
Chain of TLR4-MyD88 (Mus musculus) (P22366 whole entry, looked up): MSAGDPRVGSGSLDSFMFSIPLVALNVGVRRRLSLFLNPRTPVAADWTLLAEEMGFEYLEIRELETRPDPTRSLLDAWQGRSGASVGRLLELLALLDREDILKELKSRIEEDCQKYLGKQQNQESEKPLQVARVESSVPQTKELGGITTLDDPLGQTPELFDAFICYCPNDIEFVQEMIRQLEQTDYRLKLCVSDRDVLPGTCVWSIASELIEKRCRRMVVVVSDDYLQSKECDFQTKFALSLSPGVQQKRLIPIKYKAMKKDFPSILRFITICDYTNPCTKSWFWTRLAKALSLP
Chain of TLR4-MyD88 (Mus musculus) (Q9QUK6 whole entry, looked up): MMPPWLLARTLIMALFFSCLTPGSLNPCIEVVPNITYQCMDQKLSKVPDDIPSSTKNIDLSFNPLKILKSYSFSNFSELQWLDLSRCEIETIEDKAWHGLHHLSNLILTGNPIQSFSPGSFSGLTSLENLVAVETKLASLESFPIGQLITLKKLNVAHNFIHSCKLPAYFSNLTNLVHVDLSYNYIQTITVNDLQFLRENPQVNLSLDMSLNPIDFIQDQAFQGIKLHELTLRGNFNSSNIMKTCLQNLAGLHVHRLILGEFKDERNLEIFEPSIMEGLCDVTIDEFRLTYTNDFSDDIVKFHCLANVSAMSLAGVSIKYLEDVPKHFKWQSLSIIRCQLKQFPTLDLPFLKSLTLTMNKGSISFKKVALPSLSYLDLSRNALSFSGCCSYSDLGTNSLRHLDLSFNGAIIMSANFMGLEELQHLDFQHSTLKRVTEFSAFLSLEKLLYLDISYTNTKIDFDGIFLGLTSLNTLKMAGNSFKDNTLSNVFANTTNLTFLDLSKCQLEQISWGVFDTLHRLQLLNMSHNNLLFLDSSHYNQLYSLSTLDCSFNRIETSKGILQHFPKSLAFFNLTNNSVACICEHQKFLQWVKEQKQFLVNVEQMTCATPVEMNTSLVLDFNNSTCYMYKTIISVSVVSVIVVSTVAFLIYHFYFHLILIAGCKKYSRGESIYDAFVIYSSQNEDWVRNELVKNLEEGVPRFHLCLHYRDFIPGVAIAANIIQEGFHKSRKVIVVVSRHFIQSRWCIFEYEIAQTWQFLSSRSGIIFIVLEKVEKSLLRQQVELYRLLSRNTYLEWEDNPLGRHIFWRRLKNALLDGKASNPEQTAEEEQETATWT

For `O[C@H](COc1ccc(Br)cc1)CN1CCN(Cc2cc3ccccc3[nH]2)CC1`, the Tmax [1] was 3.67 h, the AUC(0-t) at 24 h [2] was 691 ng·h/mL and the half-life [3] was 1.39 h. The Stability [4] was “Stable”, the Activity (Mus musculus [5]) was “Active” and the Activity [6] was “Non-toxic”. For the same compound, the Activity (Mus musculus [7]) was “Active”, the Activity (Mus musculus [8]) was “Active” and the Stability [9] was “Stable”. For the same compound, the inhibition [10] was “Active”, the Activity (Mus musculus [11]) was “Active” and the Activity (Mus musculus [12]) was “Active”. The Activity [13] was “Non-toxic”, the Stability [14] was “Stable” and the inhibition (J774.A1 [15]) was “Active”. For the same compound, the Activity (Mus musculus [16]) was “Active”, the Activity (Mus musculus [17]) was “Active” and the inhibition (J774.A1 [18]) was “Active”. For the same compound, the Activity (Mus musculus [19]) was “Active”, the Activity (Mus musculus [20]) was “Active” and the AUC(0-inf) [21] was 3200 ng·h/mL. For the same compound, the Activity [22] was “Active”, the Activity (Peritoneal macrophage) was “inactive” and the Activity (Mus musculus [23]) was “Active”. For the same compound, the concentration at 24 h [24] was 1080 ng/mL, the Cmax [25] was 320 ng/mL and the Activity [26] was “Toxic”. For the same compound, the inhibition [27] was “Active”, the Drug uptake [28] was “Active” and the Kd [29] was 15 µM. The Activity (Mus musculus [30]) was “Active”, the inhibition [31] was “inactive” and the Activity (J774.A1 [32]) was “Non-toxic”. For the same compound, the Activity (Mus musculus [33]) was “Active”.
